Source: patent US7741311B2, “Composition and method for treating occlusive vascular diseases, nerve regeneration, and wound healing” (priority 2005, dated 2010)

Experiments:
[1] = system: human dermal micro-vascular endothelial cells (HDMEC); assay: three-dimensional in vitro sprout angiogenesis assay (endothelial cells on gelatin-coated beads in fibrin gel); assay type: cell-based; conditions: Ch 2 (10 μg); sub-threshold levels of VEGF and b-FGF; P<0.01
Protocol: The effect of low molecular weight sulfated saccharides (molecular weight<5000 Dalton) on micro-vascular endothelial cell sprouting (in Vitro 3D Sprout Angiogenesis) is depicted with respect to culture of HDMEC on micro-carrier beads in FIG. 19. 80% confluent HDMEC (Passage 5-10) are mixed with gelatin-coated Cytodex-3 beads with a ratio of 40 cells per bead. If using 24-well plate for the assay, 150-200 beads per well are used. Cells and beads are suspended with 5 ml EBM+15% normal human serum, mixed gently every one hour for first four hours. Then the mixture culture is left in CO2 incubator overnight. The next morning, 10 ml of fresh EBM+15% HS and culture are added for another three hours. Before experiments, the culture of EC-beads is checked. 500 ul of PBS in a well of 24-well plate is added. 100 ul of the EC-bead culture solution is added to the PBS. The number of beads are observed and counted. The concentration of EC-beads is calculated. […]
Culture of HDMEC on micro-carrier beads: 80% confluent HDMEC (Passage 5-10) were mixed with gelatin-coated Cytodex-3 beads with a ratio of 40 cells per bead. […] The number of beads is counted and the concentration of EC-beads is calculated. […]
Growth factors: VEGF (30 ng/ml)+FGF2 (25 ng/ml) CH2: Sulfated Hexasaccharide at 10 ug/ml. […] A quantitative three-dimensional in vitro assay method was utilized to screen compounds for angiogenic activity. […]

[2] = system: chick chorioallantoic membrane (CAM); assay: neovascularization in the chick chorioallantoic membrane (CAM) model; assay type: in vivo; conditions: n = 8
Protocol: In vivo neovascularization was examined by the method previously described by Auerbach et al. (Auerbach et al., J. Dev. Biol., 41:391-394 (1974), which is hereby incorporated by reference in its entirety). Ten-day old embryos were purchased from Spafas, Inc. (Preston, Conn.) and were incubated at 37° C. with 55% relative humidity. In the dark with the help of a candling lamp, a small hole was punctured in the shell concealing the air sac with a hypodermic needle. A second hole was punctured in the shell on the broadside of the egg directly over an avascular portion of the embryonic membrane, as observed during candling. […]
(§1) CAM tissue directly beneath FGF2-saturated filter disk was resected from embryos treated 48 hours prior with test compound or control. […] Digital images of CAM sections adjacent to filters were collected using a 3-CCD color video camera system (Toshiba America, New York, N.Y.) and analyzed using Image-Pro Plus software (Media Cybernetics, Silver Spring, Md.).
as §1, with “48 h” for “48 hours”, “with” for “with test”, “analyzed with the” for “analyzed using”

For `COc1cccc(-c2cc(=O)c3ccccc3o2)c1N` [PD9805], the “blockade of angiogenesis promoted by Ch 2” value [1] was “blocked”, the “Mean % Inhibition ± SEM” value ([2]; inhibition of Ch 2 (10 μg) pro-angiogenesis by inhibitor 4.8 μg, P < 0.01) was 71 ± 6 % and the “Mean Branch Points ± SEM” value ([2]; inhibitor 4.8 μg added to PBS + Ch 2 (10 μg)) was 95 ± 8.
